Results: ChEMBL document CHEMBL1201862, “PubChem BioAssay data set” (2004)
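In this assay, cells in 96-well plates receive the compound at five concentrations for 48 hours. Endpoints are linearly interpolated between the surrounding concentrations. Abbreviation: GI50, concentration required for 50% inhibition of growth.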 Active and inactive are the calls of the source. Rule as the data show it: active = GI50 up to about 1.1 µM and inactive = higher.

Assays:
Assay in all cases: NCI tumour cell line growth inhibition, 48 h
UO-31 = test system: UO-31
NCI-H23 = test system: NCI-H23
SF-268 = test system: SF-268
UACC-62 = test system: UACC-62
EKVX = test system: EKVX
MCF7 = test system: MCF7
MDA-MB-435 = test system: MDA-MB-435
OVCAR-4 = test system: OVCAR-4
KM12 = test system: KM12
MOLT-4 = test system: MOLT-4
OVCAR-8 = test system: OVCAR-8
M14 = test system: M14
SK-OV-3 = test system: SK-OV-3
SNB-75 = test system: SNB-75
BT-549 = test system: BT-549
HL-60 = test system: HL-60
SNB-19 = test system: SNB-19
A549 = test system: A549
T47D = test system: T47D
A498 = test system: A498

Measured: GI50

Nc1c(C(=O)c2ccc(Cl)cc2)[nH]c(NCc2ccccc2)c1C(=S)Nc1ccccc1
inactive: UO-31 1.58 µM | NCI-H23 2.39 µM | SF-268 3.03 µM | UACC-62 8.15 µM | EKVX 7.21 µM | MCF7 1.58 µM | MDA-MB-435 1.74 µM | OVCAR-4 1.66 µM | KM12 1.67 µM | MOLT-4 2.58 µM | OVCAR-8 1.77 µM | M14 1.96 µM | SK-OV-3 20.1 µM | SNB-75 1.71 µM | BT-549 2.49 µM | HL-60 3.93 µM | SNB-19 4.07 µM | A549 2.18 µM | T47D 3.76 µM | A498 9.98 µM

Cc1nnc(N2C(=O)C(=Cc3ccc(Cl)cc3)N=C2c2ccc(Cl)cc2)nc1/C=C\c1ccc(N(C)C)cc1
inactive: UO-31 50.8 µM | NCI-H23 > 100 µM | SF-268 > 100 µM | UACC-62 > 100 µM | EKVX > 100 µM | MCF7 > 100 µM | MDA-MB-435 > 100 µM | OVCAR-4 > 100 µM | KM12 > 100 µM | MOLT-4 > 100 µM | OVCAR-8 > 100 µM | M14 83.6 µM | SK-OV-3 > 100 µM | SNB-75 > 100 µM | BT-549 > 100 µM | HL-60 93.8 µM | SNB-19 > 100 µM | A549 > 100 µM | T47D > 100 µM | A498 > 100 µM

O=C(O)CNCc1c2ccccc2nc2ccccc12
inactive: UO-31 25.2 µM | NCI-H23 35.6 µM | SF-268 32.7 µM | UACC-62 44.7 µM | EKVX 38.4 µM | MCF7 27.7 µM | MDA-MB-435 36.6 µM | OVCAR-4 31.7 µM | KM12 32.3 µM | MOLT-4 6.27 µM | OVCAR-8 32.9 µM | M14 47.6 µM | SK-OV-3 > 76.4 µM | SNB-75 32.8 µM | BT-549 33.4 µM | HL-60 7.64 µM | SNB-19 74 µM | A549 43.4 µM | T47D 31.7 µM | A498 66.1 µM

CC(=O)C(C)CCOC1(C)OCCC1C (stereo not given)
inactive: UO-31 > 100 µM | NCI-H23 > 100 µM | SF-268 > 100 µM | UACC-62 > 100 µM | EKVX > 100 µM | MCF7 > 100 µM | MDA-MB-435 > 100 µM | OVCAR-4 > 100 µM | KM12 > 100 µM | MOLT-4 > 100 µM | OVCAR-8 > 100 µM | M14 > 100 µM | SK-OV-3 > 100 µM | SNB-75 > 100 µM | BT-549 > 100 µM | HL-60 > 100 µM | SNB-19 > 100 µM | A549 > 100 µM | T47D > 100 µM | A498 > 100 µM

N#CC(C#N)/N=N/c1ccc(-c2nc3ccccc3o2)cc1
inactive: UO-31 13 µM | NCI-H23 10.1 µM | SF-268 27.5 µM | UACC-62 6.05 µM | EKVX 11.7 µM | MCF7 11.1 µM | MDA-MB-435 16.5 µM | OVCAR-4 12 µM | KM12 20.9 µM | MOLT-4 7.82 µM | OVCAR-8 23.6 µM | M14 15.2 µM | SK-OV-3 18.6 µM | SNB-75 24.4 µM | BT-549 12.1 µM | HL-60 5.48 µM | SNB-19 24.7 µM | A549 21 µM | T47D 4.32 µM | A498 13.9 µM
